Patent US6770596B1, “Fused tricyclic compounds, process for their preparation, and herbicidal compositions containing them” (Ishihara Sangyo Kaisha Ltd., priority 2002, dated 2004)

Assays:
Format in all cases: in vivo
[1] = system: redroot pigweed (Amaranthus retroflexus, AMR); assay: Pre-emerge test, redroot pigweed; settings: 250 g ai/ha, 14 days after application, rating scale 0-100 (0 no damage, 100 complete death)
Summary of the method: (§1)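 Read-out is a visual 0–100 phytotoxicity rating taken 14 days after treatment, where 100 means all plants dead. Compounds were applied pre-emergence in acetone by track sprayer at rates from 8 to 1000 g ai/ha onto pots sown the previous day.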

[2] = system: velvetleaf (Abutilon theophrasti, ABT); assay: Pre-emerge test, velvetleaf; settings: 250 g ai/ha, 14 days after application, rating scale 0-100 (0 no damage, 100 complete death)
Summary of the method: as §1

[3] = system: sicklepod (Cassia obtusifolia, CAO); assay: Pre-emerge test, sicklepod; settings: 250 g ai/ha, 14 days after application, rating scale 0-100 (0 no damage, 100 complete death)
Summary of the method: as §1

[4] = system: ivyleaf morningglory (Ipomoea hederacea, IPH); assay: Pre-emerge test, ivyleaf morningglory; settings: 250 g ai/ha, 14 days after application, rating scale 0-100 (0 no damage, 100 complete death)
Summary of the method: as §1

[5] = system: lambsquarters (Chenopodium album, CHA); assay: Pre-emerge test, lambsquarters; settings: 250 g ai/ha, 14 days after application, rating scale 0-100 (0 no damage, 100 complete death)
Summary of the method: as §1

[6] = system: common ragweed (Ambrosia artemisiifolia L., AML); assay: Pre-emerge test, common ragweed; settings: 250 g ai/ha, 14 days after application, rating scale 0-100 (0 no damage, 100 complete death)
Summary of the method: as §1

[7] = system: cocklebur (Xanthium strumariunt, XAS); assay: Pre-emerge test, cocklebur; settings: 250 g ai/ha, 14 days after application, rating scale 0-100 (0 no damage, 100 complete death)
Summary of the method: as §1

[8] = system: green foxtail (Setaria viridis, SEV); assay: Pre-emerge test, green foxtail; settings: 250 g ai/ha, 14 days after application, rating scale 0-100 (0 no damage, 100 complete death)
Summary of the method: as §1

[9] = system: barnyardgrass (Echinachloa crus-galli, ECC); assay: Pre-emerge test, barnyardgrass; settings: 250 g ai/ha, 14 days after application, rating scale 0-100 (0 no damage, 100 complete death)
Summary of the method: as §1

[10] = system: johnsongrass (Sorghum halepense, SOH); assay: Pre-emerge test, johnsongrass; settings: 250 g ai/ha, 14 days after application, rating scale 0-100 (0 no damage, 100 complete death)
Summary of the method: as §1

[11] = system: large crabgrass (Digitaria sanguinalis, DIS); assay: Pre-emerge test, large crabgrass; settings: 250 g ai/ha, 14 days after application, rating scale 0-100 (0 no damage, 100 complete death)
Summary of the method: as §1

[12] = system: field corn (Zea mays L., var. Dekalb 535, CORN); assay: Pre-emerge test, crop damage field corn
Summary of the method: as §1

[13] = system: soybean (Glycine max L., var. Pella 86, SOY); assay: Pre-emerge test, crop damage soybean
Summary of the method: as §1

[14] = system: upland rice (Oryza sp., var.Tebonnet, RICE); assay: Pre-emerge test, crop damage upland rice
Summary of the method: as §1

[15] = system: wheat (Triticum aestivum); assay: Pre-emerge test, crop damage wheat
Summary of the method: as §1

[16] = system: redroot pigweed (Amaranthus retroflexus, AMR); assay: Post-emerge test, redroot pigweed; settings: 250 g ai/ha, 14 days after application, rating scale 0-100 (0 no damage, 100 complete death)
Summary of the method: (§2)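 Foliar application, track sprayer with flat fan nozzle, 187 l/ha acetone + 0.25% v/v NIS, 8-1000 g ai/ha; plants at 2-3 leaves, sown 8-21 d before. Scored 0-100 at 14 DAA.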

[17] = system: velvetleaf (Abutilon theophrasti, ABT); assay: Post-emerge test, velvetleaf; settings: 250 g ai/ha, 14 days after application, rating scale 0-100 (0 no damage, 100 complete death)
Summary of the method: as §2

[18] = system: sicklepod (Cassia obtusifolia, CAO); assay: Post-emerge test, sicklepod; settings: 250 g ai/ha, 14 days after application, rating scale 0-100 (0 no damage, 100 complete death)
Summary of the method: as §2

[19] = system: ivyleaf morningglory (Ipomoea hederacea, IPH); assay: Post-emerge test, ivyleaf morningglory; settings: 250 g ai/ha, 14 days after application, rating scale 0-100 (0 no damage, 100 complete death)
Summary of the method: as §2

[20] = system: lambsquarters (Chenopodium album, CHA); assay: Post-emerge test, lambsquarters; settings: 250 g ai/ha, 14 days after application, rating scale 0-100 (0 no damage, 100 complete death)
Summary of the method: as §2

[21] = system: common ragweed (Ambrosia artemisiifolia L., AML); assay: Post-emerge test, common ragweed; settings: 250 g ai/ha, 14 days after application, rating scale 0-100 (0 no damage, 100 complete death)
Summary of the method: as §2

[22] = system: cocklebur (Xanthium strumariunt, XAS); assay: Post-emerge test, cocklebur; settings: 250 g ai/ha, 14 days after application, rating scale 0-100 (0 no damage, 100 complete death)
Summary of the method: as §2

[23] = system: green foxtail (Setaria viridis, SEV); assay: Post-emerge test, green foxtail; settings: 250 g ai/ha, 14 days after application, rating scale 0-100 (0 no damage, 100 complete death)
Summary of the method: as §2

[24] = system: barnyardgrass (Echinachloa crus-galli, ECC); assay: Post-emerge test, barnyardgrass; settings: 250 g ai/ha, 14 days after application, rating scale 0-100 (0 no damage, 100 complete death)
Summary of the method: as §2

[25] = system: johnsongrass (Sorghum halepense, SOH); assay: Post-emerge test, johnsongrass; settings: 250 g ai/ha, 14 days after application, rating scale 0-100 (0 no damage, 100 complete death)
Summary of the method: as §2

[26] = system: large crabgrass (Digitaria sanguinalis, DIS); assay: Post-emerge test, large crabgrass; settings: 250 g ai/ha, 14 days after application, rating scale 0-100 (0 no damage, 100 complete death)
Summary of the method: as §2

[27] = system: field corn (Zea mays L., var. Dekalb 535, CORN); assay: Post-emerge test, crop damage field corn
Summary of the method: as §2

[28] = system: soybean (Glycine max L., var. Pella 86, SOY); assay: Post-emerge test, crop damage soybean
Summary of the method: as §2

[29] = system: upland rice (Oryza sp., var.Tebonnet, RICE); assay: Post-emerge test, crop damage upland rice
Summary of the method: as §2

[30] = system: wheat (Triticum aestivum); assay: Post-emerge test, crop damage wheat
Summary of the method: as §2

[31] = var. Dekalb 535, Zea mays (field corn), in vivo, 14 days
[32] = var. Pella 86, Glycine max (soybean), in vivo, 14 days
[33] = var. Tebonnet, Oryza sp. (upland rice), in vivo, 14 days
[34] = Triticum aestivum (wheat), in vivo, 14 days
[35] = pre-emerge, 250 g ai/ha, 14 days after application, rating scale 0-100 (0 no damage, 100 complete death)
[36] = post-emerge, 250 g ai/ha, 14 days after application, rating scale 0-100 (0 no damage, 100 complete death)

Row | Compound | Pre-emerge Herbicidal Activity AMR (phytotoxicity rating) [1] | Pre-emerge Herbicidal Activity ABT (phytotoxicity rating) [2] | Pre-emerge Herbicidal Activity CAO (phytotoxicity rating) [3] | Pre-emerge Herbicidal Activity IPH (phytotoxicity rating) [4] | Pre-emerge Herbicidal Activity CHA (phytotoxicity rating) [5] | Pre-emerge Herbicidal Activity AML (phytotoxicity rating) [6] | Pre-emerge Herbicidal Activity XAS (phytotoxicity rating) [7] | Pre-emerge Herbicidal Activity SEV (phytotoxicity rating) [8] | Pre-emerge Herbicidal Activity ECC (phytotoxicity rating) [9] | Pre-emerge Herbicidal Activity SOH (phytotoxicity rating) [10] | Pre-emerge Herbicidal Activity DIS (phytotoxicity rating) [11] | Post-emerge Herbicidal Activity AMR (phytotoxicity rating) [16] | Post-emerge Herbicidal Activity ABT (phytotoxicity rating) [17] | Post-emerge Herbicidal Activity CAO (phytotoxicity rating) [18] | Post-emerge Herbicidal Activity IPH (phytotoxicity rating) [19] | Post-emerge Herbicidal Activity CHA (phytotoxicity rating) [20] | Post-emerge Herbicidal Activity AML (phytotoxicity rating) [21] | Post-emerge Herbicidal Activity XAS (phytotoxicity rating) [22] | Post-emerge Herbicidal Activity SEV (phytotoxicity rating) [23] | Post-emerge Herbicidal Activity ECC (phytotoxicity rating) [24] | further results
1 | C[C@H]1Oc2cc(F)c(-c3nn(C)c(OC(F)F)c3Cl)c3c2N(CC(=O)N3)C1=O [1-55, 8-[-4-Chloro-5-(difluoromethoxy)-1-methyl-1H-pyrazol-3-yl)-9-fluoro-2-R-methyl-5H-pyrazino[1,2,3-de]-1,4-benzoxazine-3,6(2H, 7H)-dione] | 100 | 99 | 100 | 100 | 100 | 100 | 95 | 100 | 100 | 100 | 100 | 100 | 100 | 99 | 100 | 100 | 85 | 100 | 99 | 95 | Pre-emerge crop damage CORN (phytotoxicity rating) [12, 31]: 20; Pre-emerge crop damage SOY (phytotoxicity rating) [13, 32]: 60; Pre-emerge crop damage RICE (phytotoxicity rating) [14, 33]: 40; Pre-emerge crop damage WHEAT (phytotoxicity rating) [15, 34]: 3; Post-emerge Herbicidal Activity SOH (phytotoxicity rating) [25]: 50; Post-emerge Herbicidal Activity DIS (phytotoxicity rating) [26]: 35; Post-emerge crop damage CORN (phytotoxicity rating) [27, 31]: 15; Post-emerge crop damage SOY (phytotoxicity rating) [28, 32]: 75; Post-emerge crop damage RICE (phytotoxicity rating) [29, 33]: 75; Post-emerge crop damage WHEAT (phytotoxicity rating) [30, 34]: 50
2 | CC1Oc2cc(F)c(-c3nn(C)c(OC(F)F)c3Cl)c3c2N(CC(=O)N3)C1=O (stereo not drawn) [1-56] | 100 | 100 | 100 | 100 | 100 | 100 | 100 | 100 | 100 | 100 | 100 | 100 | 100 | 100 | 100 | 100 | 100 | 100 | 100 | 100 | Pre-emerge crop damage CORN (phytotoxicity rating) [12, 35]: 50; Pre-emerge crop damage SOY (phytotoxicity rating) [13, 35]: 15; Pre-emerge crop damage RICE (phytotoxicity rating) [14, 35]: 75; Pre-emerge crop damage WHEAT (phytotoxicity rating) [15, 35]: 55; Post-emerge Herbicidal Activity SOH (phytotoxicity rating) [25]: 85; Post-emerge Herbicidal Activity DIS (phytotoxicity rating) [26]: 100; Post-emerge crop damage CORN (phytotoxicity rating) [27, 36]: 20; Post-emerge crop damage SOY (phytotoxicity rating) [28, 36]: 100; Post-emerge crop damage RICE (phytotoxicity rating) [29, 36]: 99; Post-emerge crop damage WHEAT (phytotoxicity rating) [30, 36]: 30
3 | Cn1nc(-c2c(F)cc3c4c2NC(=O)CN4C(=O)C(C)(C)O3)c(Cl)c1OC(F)F [1-59] | 100 | 100 | 99 | 85 | 100 | 100 | 60 | 100 | 99 | 100 | 99 | 100 | 100 | 70 | 100 | 100 | 80 | 100 | 99 | 99 | Pre-emerge crop damage CORN (phytotoxicity rating) [12, 35]: 40; Pre-emerge crop damage SOY (phytotoxicity rating) [13, 35]: 15; Pre-emerge crop damage RICE (phytotoxicity rating) [14, 35]: 50; Pre-emerge crop damage WHEAT (phytotoxicity rating) [15, 35]: 45; Post-emerge Herbicidal Activity SOH (phytotoxicity rating) [25]: 65; Post-emerge Herbicidal Activity DIS (phytotoxicity rating) [26]: 99; Post-emerge crop damage CORN (phytotoxicity rating) [27, 36]: 10; Post-emerge crop damage SOY (phytotoxicity rating) [28, 36]: 45; Post-emerge crop damage RICE (phytotoxicity rating) [29, 36]: 55; Post-emerge crop damage WHEAT (phytotoxicity rating) [30, 36]: 35
4 | CC1C(=O)Nc2c(-c3nn(C)c(OC(F)F)c3Cl)c(F)cc3c2N1C(=O)C(C)(C)O3 (stereo not drawn) [1-60] | 100 | 100 | 98 | 100 | 100 | 80 | 85 | 100 | 100 | 100 | 100 | 85 | 100 | 60 | 100 | 100 | 70 | 85 | 95 | 98 | Pre-emerge crop damage CORN (phytotoxicity rating) [12, 35]: 80; Pre-emerge crop damage SOY (phytotoxicity rating) [13, 35]: 40; Pre-emerge crop damage RICE (phytotoxicity rating) [14, 35]: 70; Pre-emerge crop damage WHEAT (phytotoxicity rating) [15, 35]: 50; Post-emerge Herbicidal Activity SOH (phytotoxicity rating) [25]: 0; Post-emerge Herbicidal Activity DIS (phytotoxicity rating) [26]: 0; Post-emerge crop damage CORN (phytotoxicity rating) [27, 36]: 5; Post-emerge crop damage SOY (phytotoxicity rating) [28, 36]: 50; Post-emerge crop damage RICE (phytotoxicity rating) [29, 36]: 0; Post-emerge crop damage WHEAT (phytotoxicity rating) [30, 36]: 30
